What was measured:
iBMK cells [1] = assay: MTT assay, viability of iBMK cells; format: cell-based, mouse; settings: for sensitivity to TNF-α-induced cell death (MTT assay): TNF-α/CHX (0.05 μg/ml)
Experimental: 3-(4,5-dimethylthiazol-2-yl)-2,5-diphenyltetrazolium bromide (MTT) assay to measure the viability of iBMK cells treated with paclitaxel, CHX, or both mouse TNF-α and CHX was performed as previously described (Ioffe, M. L., et al., Prostate 61: 243-247. (2004)).
To test if apoptosis mediated by general translation inhibition was dependent on specific BH3-only proteins, the apoptotic response of puma^−/−, bim^−/−, noxa^−/−, nbk/bik^−/− iBMK cells to translation inhibition was tested with CHX. In addition to W2, D3, X2 or K1 cells, puma^−/−, bim^−/−, noxa^−/− or nbk/bik^−/− cells were treated with increasing concentration of CHX (0.05, 0.5, 1.0, 5.0 and 10.0 μg/ml) for 24 hours to induce translation inhibition and viability was assessed. […] In contrast, when D3, K1 (FIG. 6B) and nbk/bik^−/− (FIG. 6C) cells were treated with CHX, cell viability remained high. […] In contrast, D3 cells were resistant to cell death induced by TNF-α and paclitaxel (FIGS. 6D and E). […] Furthermore, NBK/BIK was not required for TNF-α-mediated apoptosis (FIG. 6D) which signals through tBID (Li, H., et al., Cell 94: 491-501 (1998); Luo, X., et al., Cell 94: 481-490 (1998)), nor was NBK/BIK required for apoptosis induced by taxanes (FIG. 6E) which is dependent on BIM (Bouillet, P., et al., Science 286: 1735-1738 (1999); Tan, T. T., et al., Cancer Cell 7: 227-238. (2005)). These findings support the role for specific BH3-only proteins controlling the response to discrete apoptotic stimuli.

caspase-3, PARP = assay: Western blot of active caspase-3 and PARP in T-Rex-293 lysates; format: cell-based, human
Experimental: Western blot analysis and immunofluorescence were performed as previously described (Perez, D., and White, E. J. Cell Biol. 141: 1255-1266 (1998); Perez, D., and White, E. Mol. Cell 6: 53-63 (2000)). The term “Western blot” refers to a method for identifying proteins in a complex mixture; proteins are separated electrophoretically in a gel medium; transferred from the gel to a protein binding sheet or membrane; and the sheet or membrane containing the separated proteins exposed to specific antibodies which bind to, locate, and enable visualization of protein(s) of interest. T-Rex-293 (mazF/pcDNA3) and T-Rex-293 (mazF/mazE) cells were harvested at 0, 24, 48 and 72 hr post-treatment with tetracycline or staurosporine by scraping and centrifugation. All cell pellets were lysed in 2× Laemmli buffer. Cell lysates were subjected to electrophoresis on a 15% SDS-PAGE gel and then transferred onto an Immobilon-P membrane (Millipore, Bedford, Mass.). The blot was incubated with following antibody: anti-active caspase-3 rabbit polyclonal antibody (Cell Signaling Technology, Beverly, Mass.), anti-BAX, anti-BAK rabbit polyclonal antibody (NT) (Upstate Biotechnology Inc., Lake Placid, N.Y.), anti-BID goat polyclonal antibody (R&D Systems, Inc, Minneapolis, Minn.), anti-Bim rabbit polyclonal antibody (Alexis Biochemical, San Diego, Calif.), anti-BCL-2 hamster monoclonal antibody (PharMingen, San Diego, Calif.), anti-BCL-XL mouse monoclonal antibody (Trevigen, Gaithersburg, Md.), anti-MCL-1 rabbit polyclonal antibody (Stressgen Biotechnologies, Victoria, British Columbia, Canada), anti-PARP mouse monoclonal antibody (PharMingen, San Diego, Calif.), anti-PUMA rabbit polyclonal antibody (Nelson, D. A., et al., Genes Dev. 18: 2095-2107 (2004)), anti-E1A monoclonal antibody; anti-actin monoclonal antibody (Oncogene Research Products); and anti-Xpress monoclonal antibody (Invitrogen). An antibody directed to human NBK/BIK was generated by expression of a GST-tagged human NBK/BIK fusion protein encoding an N-terminal 78-amino acid region in bacteria and immunization of rabbits (Cocalico). Western Blots were developed with horseradish peroxidase-conjugated secondary antibodies using the ECL system (Amersham-Pharmacia Biotech, Piscataway, N.J.).

iBMK cells [2] = settings: cited from earlier work
[3] = tested on: human GAPDH and β-actin mRNA; assay: Northern blot analysis of cellular mRNA in T-Rex-293 cells; format: cell-based; settings: co-expression of MazE with MazF, T-Rex-293 (mazF/mazE), throughout time course of induction
Experimental: Northern blot analysis and real-time PCR (RT-PCR) was preformed as previously described (Zhang, Y., et al., Mol. Cell 12: 913-923 (2003); Cuconati, A., et al., Genes Dev. 17: 2922-2932 (2003)). Total RNA from tetracycline-treated (0, 24, 48 and 72 hr) or untreated (0, 24, 48 and 72 hr) T-Rex-293 (mazF/pcDNA3) and T-Rex-293 (mazF/mazE) cells for were isolated through the use of Trizol Reagent (Gibco, Carlsbad, Calif.). For Northern blot analysis, 10 μg of total RNA from each condition was subjected to formaldehyde-agarose gel electrophoresis followed by transfer onto GeneScreen Plus membrane (NEN Life Science Products, Boston, Mass.). The blot was hybridized with ^32P-labeled human GAPDH or β-actin cDNA. One hundred ng of total RNA was subjected to real time RT-PCR with the Taqman EZ-RT PCR kit (PE Applied Biosystems, Lincoln Centre Drive Foster City, Calif.) using recommended conditions provided by the vendor. Primers to analyze the level of human GAPDH mRNA were obtained from Applied Biosystems, and a probe for GAPDH was supplied with 5′ linkage to the reporter dye 2, 7-dimethoxy-4, 5-dichloro-6-carboxy-fluoroecein (JOE), and 3′ linkage to the quencher 6-carboxy-tetramethylrhodamine (TAMURA). β-actin primer sequences were 5′-[…]-3′ and 5′-[…]-3′. β-actin probe sequence was FAM-5′-[…] TTCC-3′-TAMURA. Reactions were carried out in triplicate and the relative amount of human GAPDH and β-actin mRNA was calculated from the difference in fluorescence signal in the 24-, 48- and 72-hr samples compared with the corresponding 0 hr sample.
To assess cellular mRNA levels, total RNA was isolated from whole cells of Tet-treated or -untreated T-Rex-293 cells and subjected to Northern blot analysis using human GAPDH and β-actin cDNA probes. […] Labeled single-stranded DNA fragments complementary to the specific mRNA being sought then are hybridized to the bound mRNA and the label detected by suitable means. […]

[4] = tested on: human GAPDH and β-actin mRNA; assay: real-time RT-PCR quantification of mRNA levels in T-Rex-293 cells; format: cell-based; settings: cells expressing both MazE and MazF
Experimental: Northern blot analysis and real-time PCR (RT-PCR) was preformed as previously described (Zhang, Y., et al., Mol. Cell 12: 913-923 (2003); Cuconati, A., et al., Genes Dev. 17: 2922-2932 (2003)). Total RNA from tetracycline-treated (0, 24, 48 and 72 hr) or untreated (0, 24, 48 and 72 hr) T-Rex-293 (mazF/pcDNA3) and T-Rex-293 (mazF/mazE) cells for were isolated through the use of Trizol Reagent (Gibco, Carlsbad, Calif.). For Northern blot analysis, 10 μg of total RNA from each condition was subjected to formaldehyde-agarose gel electrophoresis followed by transfer onto GeneScreen Plus membrane (NEN Life Science Products, Boston, Mass.). The blot was hybridized with ^32P-labeled human GAPDH or β-actin cDNA. One hundred ng of total RNA was subjected to real time RT-PCR with the Taqman EZ-RT PCR kit (PE Applied Biosystems, Lincoln Centre Drive Foster City, Calif.) using recommended conditions provided by the vendor. […] Reactions were carried out in triplicate and the relative amount of human GAPDH and β-actin mRNA was calculated from the difference in fluorescence signal in the 24-, 48- and 72-hr samples compared with the corresponding 0 hr sample.

T-Rex-293 cells [5] = assay: 35S-methionine metabolic labeling (protein synthesis); format: cell-based, human; settings: T-Rex-293 (mazF/mazE), Tet-treated
Experimental: T-Rex-293 (mazF/pcDNA3) and T-Rex-293 (mazF/mazE) cells were incubated for 0, 24 and 48 hr in tetracycline-containing complete DMEM followed by incubation for 1 hr in fresh methionine-free DMEM containing 10 μCi/ml ^35S-methionine. The cells then were washed with PBS twice and lysed in 2× Laemmli buffer. The cell lysate was subjected to SDS-PAGE followed by autoradiography and coomassie blue stain. Signal intensity was measured by Phosphoimager STORM 860 (Molecular Dynamics, Sunnyvale, Calif.).

T-Rex-293 cells [6] = assay: phase contrast morphology / cytopathic effect; format: cell-based, human; settings: MazE co-expressed with MazF, T-Rex-293
T-Rex-293 cells [7] = assay: trypan blue exclusion viability; format: cell-based, human; settings: T-Rex-293 (mazF/mazE), Tet-treated
Experimental: The viability of T-Rex-293 cells was determined by trypan blue exclusion as previously described (Degenhardt, K., et al., J. Biol. Chem. 277: 14127-14134 (2002)). T-Rex-293 (mazF/pcDNA3) and T-Rex-293 (mazF/mazE) cells were cultured for 24 hr before tetracycline treatment and then incubated for 0, 24, 48 and 72 hr at 37° C. in the presence or absence of 10 μg/ml tetracycline. After treatment, cells were collected by centrifugation of the supernatant plus adherent cells, which were harvested by trypsinization. Cells were resuspended in 500 μl of fresh medium containing 0.1% trypan blue solution (Sigma, St. Louis, Mo.) and then counted on a hemocytometer to assess the number of dead blue cells and the total number of cells counted. As a control for apoptotic cell death, T-Rex-293 (mazF/mazE) cells were treated with 1 μM staurosporine (Sigma, St. Louis, Mo.) for same time periods concurrently with tetracycline treatment.

T-Rex-293 cells [8] = assay: FACS analysis of propidium iodide labeling (sub-G1 peak); format: cell-based, human; settings: T-Rex-293 (mazF/mazE), MazE co-expressed with MazF, 72 hours of induction
Experimental: T-Rex-293 (mazF/pcDNA3) cells and T-Rex-293 (mazF/mazE) cells treated with tetracycline for 0, 24, 48 and 72 hr were harvested by trypsinization, pelleted by centrifugation and resuspended in PBS. The cells were fixed with ice-cold 70% ethanol for 30 min and stained with propidium iodide (10 μg/ml) and RNase A (100 μg/ml) overnight. The cells were analyzed on a Becton Dickinson FACSCalibur system (San Jose, Calif.).

iBMK cells [9] = assay: β-galactosidase assay, viability of iBMK cells co-expressing LacZ; format: cell-based, mouse; settings: MazE transiently co-expressed with MazF in W2 and X2 cells
Experimental: β-galactosidase assays to determine the viability of iBMK cells co-expressing LacZ and MazF were performed as previously described (Han, J., Sabbatini, P., and White, E. Mol. Cell. Biol. 16: 5857-5864 (1996)). W2, D3, X2 and K1 co-transfected with pcDNA6/His/LacZ and pcDNA4/TO/mazF or pcDNA3 for 48 hr were fixed in 1% glutaraldehyde and then stained with 0.2% X-gal solution at 37° C. for 24 hr. β-Galactosidase positive blue cells and the total number of cells (approximately 200 cells) were independently counted on a 6-cm diameter dish.

[10] = W2 and three independent nbk/bik−/− iBMK cell lines

C[C@@H]1C[C@@H]([C@H](O)CC2CC(=O)NC(=O)C2)C(=O)[C@@H](C)C1 [CHX, cycloheximide]
cell viability (MTT assay) (iBMK cells [1]; D3, K1 and nbk/bik−/− cells, CHX 0.05-10.0 μg/ml for 24 hours): remained high | survival (MTT assay) (iBMK cells [1]; W2, X2, puma−/−, bim−/− and noxa−/− cells, CHX 0.05-10.0 μg/ml for 24 hours): decreased in a dose-dependent manner

CC(=O)O[C@H]1C(=O)[C@@]2(C)[C@H]([C@H](OC(=O)c3ccccc3)[C@]3(O)C[C@H](OC(=O)[C@H](O)[C@@H](NC(=O)c4ccccc4)c4ccccc4)C(C)=C1C3(C)C)[C@]1(OC(C)=O)CO[C@@H]1C[C@@H]2O [paclitaxel]
sensitivity to paclitaxel-induced cell death (MTT assay) (iBMK cells [1]; D3 cells): resistant | sensitivity to paclitaxel-induced cell death (MTT assay) (iBMK cells [1]; [10]): clearly sensitive

CN[C@@H]1C[C@H]2O[C@@](C)([C@@H]1OC)n1c3ccccc3c3c4c(c5c6ccccc6n2c5c31)C(=O)NC4 [staurosporine, reference compound]
active caspase-3 (Western blot) (caspase-3, PARP; extracts from T-Rex-293 (mazF/mazE) cells treated with 1 μM staurosporine): detected

TNF-α
sensitivity to TNF-α-induced cell death (MTT assay) (iBMK cells [1]; D3 cells): resistant | sensitivity to TNF-α-induced cell death (MTT assay) (iBMK cells [1]; [10]): clearly sensitive | TNF-α-induced apoptosis (iBMK cells [2]; D3 iBMK cells): resistant | apoptosis induction (iBMK cells [2]; W2, X2, and K1 iBMK cells): induces apoptosis

B1: MazE: labile E. coli antitoxin that antagonizes the endoribonuclease activity of MazF; expressed from pcDNA3/mazE together with MazF (protein, UniProt P0AE72 1-82, looked up)
Antitoxin MazE: MIHSSVKRWGNSPAVRIPATLMQALNLNIDDEVKIDLVDGKLIIEPVRKEPVFTLAELVNDITPENLHENIDWGEPKDKEVW
levels of both GAPDH and β-actin mRNAs (Northern blot) [3]: maintained | levels of both GAPDH and β-actin mRNAs (real-time RT-PCR) [4]: constant levels | effect of MazE co-expression on MazF inhibition of protein synthesis (35S-methionine incorporation) (T-Rex-293 cells [5]): clearly prevented the inhibitory effect of MazF | cell number and morphology (T-Rex-293 cells [6]): maintained | effect of co-expression of MazE with MazF on viability (trypan blue exclusion) (T-Rex-293 cells [7]): conferred resistance to MazF-mediated killing | sub-G1 peak (T-Rex-293 cells [8]): 11.4% | activation of caspase-3 (Western blot) (caspase-3, PARP; co-expression of MazE with MazF, Tet-treated T-Rex-293 (mazF/mazE)): inhibited | cleaved PARP (Western blot) (caspase-3, PARP; extracts of cells expressing both MazE and MazF): not present | effect of MazE on MazF-induced cell death (β-galactosidase assay) (iBMK cells [9]): significantly repressed MazF-induced cell death
